Laboratory results published in US12552753B2, “Methods and compositions for targeting Tregs using CCR8 inhibitors” (Nanjing Immunophage Biomedical Co., Ltd., priority 2020, dated 2026).
Structures can show the parent of a compound that is named as a salt.

biological target: CCR8 (Homo sapiens, UniProt P51685); experiment: Tango assay (Tango-CCR8-Gal4-CHO-K1 cells, CCL1-stimulated, ONE-Glo luminescence); conditions: Tango Assay IC50, Inhibition of CCR8 Tango cell in vitro
Sequence (P51685 whole entry, the tested form may be a part): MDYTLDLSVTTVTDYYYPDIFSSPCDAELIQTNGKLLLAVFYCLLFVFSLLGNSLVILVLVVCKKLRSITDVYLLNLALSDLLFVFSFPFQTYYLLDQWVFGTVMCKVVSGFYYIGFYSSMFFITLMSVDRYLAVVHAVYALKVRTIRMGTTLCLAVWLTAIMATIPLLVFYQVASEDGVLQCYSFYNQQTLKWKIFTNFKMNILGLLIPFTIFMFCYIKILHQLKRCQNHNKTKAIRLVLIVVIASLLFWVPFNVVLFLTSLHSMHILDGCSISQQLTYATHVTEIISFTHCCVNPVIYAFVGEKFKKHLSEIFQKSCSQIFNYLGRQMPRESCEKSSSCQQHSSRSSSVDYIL

IC50 [µM]	Structure (SMILES)
0.021	CC(=O)N1CCCC(C(C)NS(=O)(=O)c2ccc(NC(=O)c3ccccc3C)c3ccccc23)C1 (single isomer, unassigned) [Compound 18A, N-(4-(N-(1-(1-acetylpiperidin-3-yl)ethyl)sulfamoyl)naph-thalen-1-yl)-2-methylbenzamide]
0.079	Cc1ccccc1C(=O)Nc1ccc(S(=O)(=O)N[C@H](C)C2CCNCC2)c(F)c1Cl [Compound 246A, (R)-N-(2-chloro-3-fluoro-4-(N-(1-(piperidin-4-yl)ethyl)sulfamoyl)phenyl)-2-methylbenzamide hydrochloride]
2.8	COC(=O)CN1CCCC(C(C)NS(=O)(=O)c2ccc(NC(=O)c3ccccc3C)c3ccccc23)C1 (single isomer, unassigned) [Compound 19A, methyl 2-(3-(1-(4-(2-methylbenzamido)naph-thalene-1-sulfonamido)ethyl)piper-idin-1-yl)acetate]
> 10	Cc1ccccc1C(=O)Nc1ccc(S(=O)(=O)NC(C)C2CCCN(C(=O)CN)C2)c2ccccc12 (single isomer, unassigned) [Compound 156D, N-(4-(N-(1-(1-(2-aminoacetyl)piperidin-3-yl)ethyl)sulfamoyl)naph-thalen-1-yl)-2-methylbenzamide]
2.5	Cc1cc(S(=O)(=O)N[C@H](C)C2CCNCC2)ccc1NC(=O)C1CCOCC1 [Compound 212A, (R)-N-(2-methyl-4-(N-(1-(piperidin-4-yl)ethyl)sulfamoyl)phenyl)tetrahydro-2H-pyran-4-carboxamide hydrochloride]
0.104	Cc1ccccc1C(=O)Nc1ccc(S(=O)(=O)N[C@H](C)C2CCNCC2)c(Cl)c1Cl [Compound 244A, (R)-N-(2,3-dichloro-4-(N-(1-(piperidin-4-yl)ethyl)sulfamoyl)phen-yl)-2-methylbenzamide hydrochloride]
0.161	Cc1cc(S(=O)(=O)N[C@H](C)C2CCNCC2)ccc1NC(=O)c1cccs1 [Compound 210A, (R)-N-(2-methyl-4-(N-(1-(piperidin-4-yl)ethyl)sulfamoyl)phenyl)thiophene-2-carboxamide hydrochloride]
0.012	Cc1ccccc1C(=O)Nc1cc(Cl)c(S(=O)(=O)N[C@H](C)C2CCNCC2)cc1Cl [Compound 243A, (R)-N-(2,5-dichloro-4-(N-(1-(piperidin-4-yl)ethyl)sulfamoyl)phen-yl)-2-methylbenzamide hydrochloride]
0.158	Cc1cc(S(=O)(=O)N[C@H](C)C2CCNCC2)ccc1NC(=O)Nc1ccccc1 [Compound 236A, (R)-3-methyl-4-(3-phenylureido)-N-(1-(piperidin-4-yl)ethyl)benzenesulfonamide hydrochloride]
0.0063	Cc1ccccc1C(=O)Nc1cc(C)c(S(=O)(=O)N[C@H](C)C2CCNCC2)cc1Cl [Compound 187A, (R)-N-(2-chloro-5-methyl-4-(N-(1-(piperidin-4-yl)ethyl)sulfamoyl)phen-yl)-2-methylbenzamide hydrochloride]
0.1	CC(=O)N1CCCC(C(C)NS(=O)(=O)c2ccc(NC(=O)c3ccccc3C)c3ccccc23)C1 (single isomer, unassigned) [Compound 18B, N-(4-(N-(1-(1-acetylpiperidin-3-yl)ethyl)sulfamoyl)naph-thalen-1-yl)-2-methylbenzamide]

The remaining lines, values behind:

Structure (SMILES)	IC50 [µM]
Cc1ccccc1C(=O)Nc1ccc(S(=O)(=O)N[C@H](C)C2CCN(C(=O)OC(C)(C)C)CC2)cc1Cl [Compound 164, (R)-tert-butyl 4-(1-(3-chloro-4-(2-methylbenzamido)phen-ylsulfonamido)ethyl)piper-idine-1-carboxylate]	> 10
CCCC(=O)N1CCCC(C(=O)NS(=O)(=O)c2ccc(NC(=O)c3ccccc3C)c3ccccc23)C1 (stereo not shown) [Compound 9, 1-butyryl-N-((4-(2-methylbenzamido)naph-thalen-1-yl)sulfonyl)piperidine-3-carboxamide]	> 10
Cc1cc(S(=O)(=O)N[C@H](C)C2CCN(C)CC2)ccc1NC(=O)C1CCCCCC1 [Compound 274, (R)-N-(2-methyl-4-(N-(1-(1-methylpiperidin-4-yl)ethyl)sulfamoyl)phenyl) cycloheptane-carboxamide]	0.013
CC(=O)Nc1ccccc1COc1ccc(S(=O)(=O)NC(C)C2CCCCC2)c2ccccc12 (stereo not shown) [Compound 151, N-(2-(((4-(N-(1-cyclohexylethyl)sulfamoyl)naphthalen-1-yl)oxy)methyl)phenyl)acetamide]	1.36
Cc1cc(S(=O)(=O)N[C@H](C)C2CC[N+](C)(C)CC2)ccc1NC(=O)c1ccccc1C [Compound 301, (R)-1,1-dimethyl-4-(1-((3-methyl-4-(2-methylbenzamido)phenyl)sulfonamido)ethyl)piperidin-1-ium.chloride.]	0.102
CC(NS(=O)(=O)c1ccc(F)c(C(=O)O)c1)C1CCCCC1 (stereo not shown) [Compound 141, 5-(N-(1-cyclohexylethyl)sul-famoyl)-2-fluorobenzoic acid]	> 10
Cc1ccccc1C(=O)Nc1ccc(S(=O)(=O)N[C@H](C)C2CCN(C)CC2)c(Cl)c1Cl [Compound 275, (R)-N-(2,3-dichloro-4-(N-(1-(1-methylpiperidin-4-yl)ethyl)sulfamoyl)phenyl)-2-methylbenzamide]	0.046
Cc1cc(S(=O)(=O)N[C@H](C)C2CCNCC2)ccc1NC(=O)c1cccc2c1CCC2 [Compound 310, (R)-N-(2-methyl-4-(N-(1-(piperidin-4-yl)ethyl)sulfamoyl)phenyl)-2,3-dihydro-1H-indene-4-carboxamide hydrochloride]	0.005
CC(NS(=O)(=O)c1ccc2c(c1)C(=O)NCC2)C1CC2CCC1CC2 (stereo not shown) [Compound 134, N-(1-(bicyclo[2.2.2]octan-2-yl)ethyl)-1-oxo-1,2,3,4-tetrahydroisoquinoline-7-sulfonamide]	> 10
CCCC(=O)N1CCCC1C(=O)NS(=O)(=O)c1ccc(NC(=O)c2ccccc2C)c2ccccc12 (stereo not shown) [Compound 7, 1-butyryl-N-((4-(2-methylbenzamido)naph-thalen-1-yl)sulfonyl)pyrrolidine-2-carboxamide]	> 10
COc1cc(S(=O)(=O)NC(C)C2CC3CCC2CC3)c(C)cc1NC(=O)c1ccccc1C (stereo not shown) [Compound 173, N-(4-(N-(1-(bicyclo[2.2.2]octan-2-yl)ethyl)sulfamoyl)-2-methoxy-5-methylphenyl)-2-methylbenzamide]	0.022
Cc1ccccc1C(=O)Nc1ccc(S(=O)(=O)NC2CCOc3ccccc32)cc1 (stereo not shown) [Compound 53, N-(4-(N-(chroman-4-yl)sulfamoyl)phenyl)-2-methylbenzamide]	> 10
Cc1ccccc1C(=O)Nc1ccc(S(=O)(=O)NC(C)c2cccc(N(C)C)c2)c2ccccc12 (stereo not shown) [Compound 26, N-(4-(N-(1-(3-(dimethylamino)phenyl)ethyl)sulfamoyl)naph-thalen-1-yl)-2-methylbenzamide]	0.083
CC(NS(=O)(=O)c1ccc2cnccc2c1)C1CC2CCC1CC2 (stereo not shown) [Compound 139, N-(1-(bicyclo[2.2.2]octan-2-yl)ethyl)isoquinoline-6-sulfonamide]	> 10
Cc1ccccc1C(=O)Nc1ccc(S(=O)(=O)NC(CO)C2CCCCC2)c2ccccc12 (stereo not shown) [Compound 48, N-(4-(N-(1-cyclohexyl-2-hydroxyethyl)sulfamoyl)naphthalen-1-yl)-2-methylbenzamide]	0.17
Cc1ccccc1C(=O)Nc1ccc(S(=O)(=O)NC2CCC(C(=O)N3CCN(C)CC3)CC2)c2ccccc12 (stereo not shown) [Compound 46, 2-methyl-N-(4-(N-(4-(4-methylpiperazine-1-carbonyl)cyclohexyl)sul-famoyl)naphthalen-1-yl)benzamide]	> 10
Cc1ccccc1C(=O)Nc1ccc(S(=O)(=O)NC2CCC(C(=O)N(C)C)CC2)c2ccccc12 (stereo not shown) [Compound 45, N-(4-(N-(4-(dimethylcarbamoyl)cy-clohexyl)sulfamoyl)naph-thalen-1-yl)-2-methylbenzamide]	2.7
CC(NS(=O)(=O)c1ccc2nc(Cc3ccccc3)[nH]c2c1)C1CCCCC1 (stereo not shown) [Compound 144, 2-benzyl-N-(1-cyclohexylethyl)-1H-benzo[d]imidazole-6-sulfonamide]	2.1
CN(C)CCN1CCOc2cc(NS(=O)(=O)c3ccc4ccccc4c3)ccc2C1=O [Compound 280, N-(4-(2-(dimethylamino)ethyl)-5-oxo-2,3,4,5-tetrahydrobenzo[f][1,4]oxazepin-8-yl)naphthalene-2-sulfonamide]	> 100
CC(NS(=O)(=O)c1ccc2c(c1)C(=O)NC2=O)C1CC2CCC1CC2 (stereo not shown) [Compound 137, N-(1-(bicyclo[2.2.2]octan-2-yl)ethyl)-1,3-dioxoisoindoline-5-sulfonamide]	> 10
Cc1ccccc1C(=O)Nc1ccc(S(=O)(=O)N[C@H](C)C2CCN(C)CC2)c(C)c1Cl [Compound 308, (R)-N-(2-chloro-3-methyl-4-(N-(1-(1-methylpiperidin-4-yl)ethyl)sulfamoyl)phenyl)-2-methylbenzamide]	> 100
CCCC(=O)N1CCC(NS(=O)(=O)c2ccc(-c3nc4ccccc4[nH]3)c3ccccc23)CC1 [Compound 107, 4-(1H-benzo[d]imidazol-2-yl)-N-(1-butyrylpiperidin-4-yl)naphthalene-1-sulfonamide]	0.913
Cc1cc(S(=O)(=O)N[C@H](C)C2CCNCC2)ccc1NC(=O)C1CCC1 [Compound 254, (R)-N-(2-methyl-4-(N-(1-(piperidin-4-yl)ethyl)sulfamoyl)phenyl) cyclobutanecarboxamide]	> 100
COc1cc(S(=O)(=O)NC(C)C2CC3CCC2CC3)c(OC)cc1NC(=O)c1ccccc1C (stereo not shown) [Compound 183, N-(4-(N-(1-(bicyclo[2.2.2]octan-2-yl)ethyl)sulfamoyl)-2,5-dimethoxyphenyl)-2-methylbenzamide]	> 10
CN(C)CC(=O)N1CCOc2ccc(NS(=O)(=O)c3ccc4ccccc4c3)cc21 [Compound 22, N-(4-(2-(dimethylamino)acetyl)-3,4-dihydro-2H-benzo[b][1,4]oxazin-6-yl)naphthalene-2-sulfonamide]	> 10
Cc1cc(S(=O)(=O)NC(C)(C)C2CCN(C)CC2)ccc1NC(=O)c1ccccc1C [Compound 291, 2-methyl-N-(2-methyl-4-(N-(2-(1-methylpiperidin-4-yl)propan-2-yl)sulfamoyl)phenyl) benzamide]	0.245
